Data from article PMC7809749, “Tumor vasculature-targeted ^10B delivery by an Annexin A1-binding peptide boosts effects of boron neutron capture therapy” (BMC Cancer, 2021).

How the values were obtained:
[1] = cited from earlier work
Procedure: To facilitate esterase-aided ^10BPA release following delivery to a tumor, we conjugated IF7C to ^10BPA via an ester bond with a propanolamine linker. Following analysis of 584 mg of IF7C(^10BPA)RR, we determined its purity to be 99.5% (Fig. S1A). By contrast, to design a conjugate to be internalized by tumor cells, we conjugated IF7K to ^10BSH directly through an uncleavable linker, N-(6-maleimidocaproyloxy) sulfosuccinimide (Sulfo-EMCS). We synthesized a total of 411 mg IF7K(^10BSH)RR, and determined its purity to be 98.8% (Fig. S1B).

tumor = details: after intravenous injection; cited from earlier work
[2] = test system: murine MBT2 bladder tumor; experiment: Nuclear reactor-based BNCT of MBT2 bladder tumor-bearing mice; type: in vivo, mouse; details: compound-mediated BNCT: 10 mg/kg iv 40 min before neutron irradiation (60 min, 1 MW); MBT2, n = 3; mean ± SD
Procedure: MBT2 cells were injected as described above into the right thighs of 8-week-old female C3H/He mice, and the day of injection defined as day 0. Four weeks later, when MBT2 tumors were palpable, mice were randomly divided into six groups of 3 mice each: 1) untreated control, 2) IF7C(^10BPA)RR, 3) IF7K(^10BSH)RR, 4) neutron-irradiated controls, 5) IF7C(^10BPA)RR-mediated BNCT, and 6) IF7K(^10BSH)RR-mediated BNCT. In Groups 4, 5, and 6, tumors in right thighs were subjected to neutron beam irradiation at the heavy water facility of KURNS Research Reactor for 60 min at a power of 1 MW. Each mouse was held within an acrylic holder during neutron irradiation, and a LiF plate (50 mm thick) was used to shield the body from thermal neutrons, while exposing the tumor. Neutron fluences were measured by radioactivation of gold foils (3 mm diameter; 0.05 mm thick) on surface of both sides of the tumors. Since thermal neutrons were rapidly attenuated in the tumor, the average thermal neutron fluences of both sides were adopted as the fluence irradiated to the tumors. In this study, tumors were irradiated by 1.9 × 10^12 thermal neutrons/cm^2. Thermoluminescent dosimeters for γ-ray dosimetry were attached to tumor surfaces. […] Tumor size was measured using calipers, and tumor volume (V) was calculated as: V = ab^2/2, where a and b are the major and minor axes, respectively. […]

[3] = test system: human YTS-1 xenograft tumors; experiment: Immunohistochemistry of YTS-1 xenografts (HE, CD8α, CD31, Ki-67, Anxa1); type: in vivo; details: 3 weeks after second BNCT; for Number of CD8-positive lymphocytes per tumor area / Ki-67 proliferation index: mean ± SD; for Anxa 1 expression vs untreated, compound-only and neutron-irradiated controls: IHC
Procedure: BNCT-treated YTS-1 tumors were collected as described above, fixed in 20% formalin solution and embedded in paraffin. Tissue sections 4 μm thick were mounted on silane-coated glass slides and air-dried for 1 h. Deparaffinized tissue sections underwent heat-induced epitope retrieval using a Histofine antigen retrieval reagent (pH 6.0) (Nichirei Biosciences Inc. Tokyo, Japan) and were then incubated with anti-human Ki-67 antigen (clone MIB-1, 1:2000 dilution) or mouse anti-Anxa1 monoclonal antibody (clone MC16, 1:100 dilution) in phosphate-buffered saline (PBS) containing 5% bovine serum albumin (BSA) at 4 °C overnight. Other sections were treated with heat-induced epitope retrieval with Histofine antigen retrieval reagent (pH 9.0) (Nichirei Biosciences Inc.) and then incubated with rabbit anti-mouse CD8α (antibody (EPR21769, 1:2000 dilution) or anti-mouse CD31 (EPR17259, 1:2000 dilution) in PBS containing 5% BSA at 4 °C overnight. The Envision/HRP rabbit mouse kit was used for antibody detection (Agilent Technologies Japan., Tokyo, Japan). Nuclear counterstaining was performed by incubating sections with hematoxylin solution (Agilent Technologies Japan) for 2 min at room temperature. Eosin alcohol solution (Fujifilm Wako Pure Chemical Corporation) was used to perform HE staining, according to the manufacturer’s instruction. Images (10× objective) were captured using a Keyence BZ-9000 fluorescence microscope (Keyence, Tokyo, Japan) and BZ-II analyzer Ver 2.2 (Keyence). The white balance was adjusted for each specimen.
Six complete and non-overlapping tumor regions of interest (ROI) were selected from each case and saved as .tif files. The number of diaminobenzidine (DAB)-stained nuclei was determined in the ROI using color deconvolution and the particle analysis plug-in of the Fiji platform (ImageJ distribution, http://fiji.sc/Fiji). The mean number of CD8-positive lymphocytes in all six fields was used for statistical analysis. The number of diaminobenzidine (DAB)-stained blood vessels was counted in a ROI using the color deconvolution plug-in of the Fiji platform (ImageJ distribution, http://fiji.sc/Fiji). The mean number of CD31-positive blood vessels in all six fields was used for statistical analysis.
As above, six complete and non-overlapping tumor regions of interest (ROI) were selected and saved as .tif files, and diaminobenzidine (DAB)- and hematoxylin-stained nuclei were counted. Ki-67-positive nuclei were included in the count, regardless of staining intensity, in line with recommendations of the International Ki-67 in Breast Cancer Working Group. The number of DAB-stained nuclei was divided by the sum of DAB- and hematoxylin-stained nuclei, and values were expressed as a percentage. The mean percentage of Ki-67-positive cells in all six field was used for statistical analysis.

[4] = test system: human YTS-1 bladder tumor xenograft; experiment: Cyclotron accelerator-based BNCT of human YTS-1 xenograft mice; type: in vivo; details: mean ± SD; for Tumor volume at 4 weeks after start of first BNCT: compound injection without neutron irradiation, YTS-1 xenograft, nude mice, n = 8; for Tumor volume at 4 weeks: compound-mediated BNCT, 20 mg/kg iv 40 min before irradiation, two treatments one week apart, YTS-1, n = 8
Procedure: YTS-1 cells (2 × 10^6 cells per mouse) plus 50 μl Matrigel (Corning Inc.) were injected subcutaneously using a 27-gauge needle into the right thighs of 8-week-old female BALB/c nu/nu mice under anesthesia with 2% isoflurane inhalation. The day of injection was defined as day 0. One week later, when YTS-1 xenografts were palpable, mice were randomly divided into six groups of 8 mice each: 1) untreated control, 2) […], 4) neutron-irradiated controls, 5) IF7C(^10BPA)RR-mediated BNCT, and 6) IF7K(^10BSH)RR-mediated BNCT. In Groups 4, 5, and 6, tumors in thighs were subjected to neutron beam irradiation at the cyclotron-typed accelerator (Sumitomo Heavy Industries Ltd.) in the Aomori Prefecture Quantum Science Center for 60 min at a power of […] at 20 MeV. Radiation of mice was performed as described above. The average of the γ-ray dose was 0.23 Gy. Groups 5 and 6, IF7C(^10BPA)RR or IF7K(^10BSH)RR was administered intravenously 40 min before irradiation at a dose of 20 mg/kg. One week after the first BNCT, the second was administered using both the same method and irradiation method. The tumor size and volume was calculated as above. Four weeks after the first BNCT, all mice were sacrificed by cervical dislocation under anesthesia with 2% isoflurane inhalation, and tumors were weighed and prepared for immunohistochemical analysis.

[5] = test system: MBT2 bladder tumor-bearing C3H/He mice; experiment: ^10B concentration in tumors and normal organs by prompt gamma-ray analysis; type: in vivo, mouse; details: for Intratumoral ^10B concentration: IF7 conjugates 7 mg/kg, fructose-^10BPA 0.791 mg/kg, ^10BSH 0.868 mg/kg, MBT2 tumor; for Intratumoral ^10B concentration / ^10B tumor/blood (T/B) ratio: mean ± SD; for ^10B tumor/blood (T/B) ratio: same doses; for Tumor/blood (T/B) ratio, range: by 40 min after injection (range over 5-40 min); for Intratumoral concentration reached: ultralow dose 7 mg/kg iv, MBT2 tumor-bearing mice, discussion summary
Procedure: MBT2 cells (1 × 10^6 cells per mouse) plus 50 μl Matrigel (Corning Inc., NY, USA) were injected subcutaneously using a 27-gauge needle into the right thighs of 8-week-old female C3H/He mice under anesthesia with 2% isoflurane inhalation. The day of injection was defined as day 0. At 4 weeks after MBT2 cells injection, when MBT2 tumors were palpable, mice were randomly divided into four groups of 16 mice each and injected intravenously with: 1) fructose-^10BPA ((0.791 mg/kg), 2) IF7C(^10BPA)RR (7 mg/kg), 3) ^10BSH 0.868 mg/kg), or 4) IF7K(^10BSH)RR (7 mg/kg). Within 5, 10, 20, and 40 min of injection, four mice at each time point were sacrificed by cervical dislocation under anesthesia with 2% isoflurane inhalation. From each mouse, the tumor, brain, lung, heart, liver, kidney, bladder, stomach, intestine, spleen, skin, muscles, and blood were collected in a Teflon tube for ^10B measurement. ^10B concentrations in tissues were measured by prompt gamma-ray spectrometry using a thermal neutron guide tube installed at the Institute for Integrated Radiation and Nuclear Science, Kyoto University (KURNS).

[6] = compound injection without neutron irradiation

Substance	Solubility in aqueous solution [1]	Time for IF7 to target a tumor (tumor)	Tumor volume 3 weeks after BNCT [2]	Number of CD8-positive lymphocytes per tumor area [3, 6]	Histology (HE and CD8α staining) ([3]; compound-mediated BNCT)	Anxa 1 expression vs untreated, compound-only and neutron-irradiated controls ([3]; compound-mediated BNCT)	Ki-67 proliferation index ([3]; compound-mediated BNCT)	Number of CD8-positive lymphocytes per tumor area ([3]; compound-mediated BNCT)	Tumor volume at 4 weeks after start of first BNCT [4]	Tumor volume at 4 weeks [4]	Intratumoral ^10B concentration ([5]; 5 min after iv injection)	^10B tumor/blood (T/B) ratio ([5]; 5 min after iv injection)	Intratumoral ^10B concentration ([5]; 10 min after iv injection)	^10B tumor/blood (T/B) ratio ([5]; 10 min after iv injection)	Intratumoral ^10B concentration ([5]; 20 min after iv injection)	^10B tumor/blood (T/B) ratio ([5]; 20 min after iv injection)	Intratumoral ^10B concentration ([5]; 40 min after iv injection)	^10B tumor/blood (T/B) ratio ([5]; 40 min after iv injection)	Tumor/blood (T/B) ratio, range [5]	Intratumoral concentration reached [5]
IFLLWQR [IF7]	poorly soluble	9 min	–	–	–	–	–	–	–	–	–	–	–	–	–	–	–	–	–	–
IFLLWQRC(EMCS-^10BPA)RR [IF7C(^10BPA)RR]	–	–	2.90 ± 0.49 mm^3	709 ± 328 n/mm^2	tissue necrosis with infiltration of CD8α-positive lymphocytes	significantly higher	10.82 ± 6.31%	4351 ± 1318 n/mm^2	965 ± 844 mm^3	123 ± 114 mm^3	9.3 ± 6.9 ppm	3.48 ± 3.49	4.6 ± 0.8 ppm	2.41 ± 0.27	19.9 ± 20.4 ppm	13.54 ± 19.68	4.7 ± 0.5 ppm	2.15 ± 0.50	2.15–13.54	20 ppm
IFLLWQRK(EMCS-^10BSH)RR [IF7K(^10BSH)RR]	–	–	3111 ± 1769 mm^3	860 ± 262 n/mm^2	tissue necrosis with infiltration of CD8α-positive lymphocytes	significantly higher	9.73 ± 8.39%	4498 ± 890 n/mm^2	1511 ± 921 mm^3	69 ± 79 mm^3	17.8 ± 11.1 ppm	7.61 ± 8.81	27.0 ± 15.3 ppm	10.92 ± 9.89	16.2 ± 16.3 ppm	5.89 ± 3.57	15.4 ± 11.2 ppm	6.28 ± 7.45	5.89–10.92	25 ppm
borocaptate sodium [^10BSH, reference compound]	–	–	–	–	–	–	–	–	–	–	1.6 ± 1.4 ppm	0.41 ± 0.72	7.5 ± 8.7 ppm	2.46 ± 2.28	17.1 ± 12.8 ppm	8.72 ± 4.98	1.7 ± 0.3 ppm	1.71 ± 1.14	0.41–8.72	–
p-Boronophenylalanine [^10BPA, reference compound]	–	–	–	–	–	–	–	–	–	–	2.5 ± 4.4 ppm	0.77 ± 1.33	2.6 ± 3.1 ppm	0.87 ± 0.88	0.0 ± 0.0 ppm	0.0 ± 0.0	5.4 ± 5.0 ppm	3.16 ± 3.35	0.00–3.16	–
